Results as given in US20250339445A1, “Modulators of Orphan Nuclear Receptors for Treating Pancreatitis, Glioblastoma, Sarcopenia and Stroke” (Emory University, priority 2020, published 2025).
Entries after “also recorded” stand apart in the source; their conditions may differ.

Tests used:
RORα = target: T1, RORα (Homo sapiens, UniProt P35398); experiment: RORα activity by luciferase reporter (miR-122 promoter) in Huh-7 cells; format: cell-based
T1 construct: endogenous in cells; host or cells: Huh-7 (Huh7) human hepatocellular carcinoma cells
T1 sequence (P35398 1-523): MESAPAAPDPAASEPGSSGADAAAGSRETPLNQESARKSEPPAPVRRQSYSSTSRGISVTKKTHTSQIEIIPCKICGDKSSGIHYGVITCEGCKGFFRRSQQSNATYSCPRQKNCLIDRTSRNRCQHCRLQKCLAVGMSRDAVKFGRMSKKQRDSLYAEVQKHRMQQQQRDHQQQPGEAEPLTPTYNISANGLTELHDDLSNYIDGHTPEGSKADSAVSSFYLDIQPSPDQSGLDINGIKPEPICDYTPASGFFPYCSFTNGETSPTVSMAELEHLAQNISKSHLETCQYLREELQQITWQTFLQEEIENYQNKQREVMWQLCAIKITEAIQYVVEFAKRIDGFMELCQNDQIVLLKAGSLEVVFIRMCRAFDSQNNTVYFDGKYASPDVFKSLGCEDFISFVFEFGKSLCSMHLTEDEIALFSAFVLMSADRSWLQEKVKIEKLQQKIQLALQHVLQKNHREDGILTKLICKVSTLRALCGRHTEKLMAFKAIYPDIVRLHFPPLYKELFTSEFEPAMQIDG
Procedure: Huh-7 cells were transfected with a luciferase reporter plasmid containing the miR-122 promoter (extends to −900 from the transcription start site) with intact wild-type (WT) RORα response element (RORE) or mutated RORE (mut). The cells were treated with Compound 1 one day (24 hours) post-transfection at the indicated concentrations. Luciferase expression was measured after 24 hours of treatment and normalized to Renilla Luciferase activity expressed from a co-transfected pRL plasmid. The pRL Vector, which provides constitutive expression of Renilla luciferase, was used in combination with a firefly luciferase vector to co-transfect cells. Expression of Renilla luciferase provides an internal control value to which expression of the experimental firefly luciferase reporter gene may be normalized.
Luciferase assay. For Luciferase assays, cells grown in 24 well plates were co-transfected with a luciferase reporter plasmid (50 ng) and 1 ng of Renilla Luciferase vector (PRL, Promega) using the TransIT-LT 1 (Mirus) transfection reagent (MIR 2300, Madison, WI). Firefly and Renilla luciferase activity was assessed using the Dual Luciferase Reporter Assay system (Promega). Readings were taken in triplicates on a Mithras LB 940 Luminometer (Berthold Technologies). […]
(§1) Following transfections, the cells were lysed with passive lysis buffer (Cat #E1941; Promega), shaking for 20 min at RT and transferred into appropriate 96-well plate. Firefly and Renilla luciferase activity was assessed using the Dual Luciferase Reporter Assay system (Cat #E1910; Promega) on a luminometer Mithras 2000 (Centro XZ, LB960, Berthold Technologies, Bad Wildbad, Germany). […] Readings were taken in triplicate.
as §1, with “room temperature (RT)” for “RT”, “into the” for “into”, “triplicates. […]” for “triplicate.”
After transfections, the cells were lysed with passive lysis buffer (catalog no. E1941, Promega), shaken for 20 minutes at room temperature, and transferred into the appropriate 96-well plate. Firefly and Renilla luciferase activity was assessed using the Dual Luciferase Reporter Assay system (catalog no. E1910, Promega) on a luminometer Mithras 2000 (Centro XZ, LB960; Berthold Technologies, Bad Wildbad, Germany). […] Readings were taken in triplicate.

Plasma half-life = format: in vivo, mice; details: mouse, read-out: plasma t1/2 (converted)

Compound: O=C1Nc2cc(C(=O)N3CCC(Cc4ccccc4)CC3)ccc2Nc2ccccc21 [Compound 1]
- Induction of MIR122 promoter, compared with screened set and SR1078 (RORα; Huh7, overnight, 1 μM tested compounds, 10 μM SR1078): most potent
- Luciferase expression from miR-122 promoter with mutated RORE (RORα; Huh-7, mutated RORE): negates activity; also recorded: no activity; also recorded: no induction
- Luciferase expression from miR-122 promoter with WT RORE (RORα; Huh-7, wild-type RORE, 24 hours of treatment): dose-dependent increase; also recorded: induces expression of RORα-regulated luciferase; also recorded: increase expression of MIR122 promoter activity
- half-life (Plasma half-life): 2.7 h
